Assay results taken from patent US20090170827A1, “Acid Addition Salt of Dihydropyridine Derivative” (Daiichi Sankyo Company , Limited, priority 2005, published 2009).

Experiment: Thermal stability test
Assay type: physicochemical
Protocol: The test compound was placed in a glass bottle and allowed to stand under the following conditions (1) and (2). After a certain period of time had elapsed, the residual rate of the active ingredient [compound (I)] in the test compound was measured by high performance liquid chromatography.
(1): Closed state, 60° C.;
(2): Non-closed state, 40° C., humidity 75%.
The measurement conditions in high performance liquid chromatography are as follows.
Column: L-column ODS [4.6 mm×250 mm, manufactured by Chemicals Evaluation and Research Institute, Japan]
Mobile layer: acetonitrile/22 mM potassium dihydrogenphosphate buffer/methanol=455/350/195 (V/V/V) (adjusted to pH 5.5 by phosphoric acid)
Column temperature: 40° C.
Detection wavelength: 220 nm
The residual rate (%) was calculated by the following formula.
The residual rate (%)=[1−(sum of peak area percentages of impurities and decomposed products)]×100

[1] = Condition (1): closed state, 60° C.
[2] = Condition (1): closed state, 60° C., time 0 month
[3] = Condition (1): closed state, 60° C., time 1 month
[4] = Condition (1): closed state, 60° C., time 3 months
[5] = Condition (2): non-closed state, 40° C., humidity 75%
[6] = Condition (2): non-closed state, 40° C., humidity 75%, time 0 month
[7] = Condition (2): non-closed state, 40° C., humidity 75%, time 1 month
[8] = Condition (2): non-closed state, 40° C., humidity 75%, time 3 months
[9] = Condition (1): closed state, 60° C., time 6 months
[10] = Condition (1): closed state, 60° C., time 0 month, dihydrochloride
[11] = Condition (1): closed state, 60° C., time 1 month, dihydrochloride
[12] = Condition (2): non-closed state, 40° C., humidity 75%, dihydrochloride
[13] = Condition (2): non-closed state, 40° C., humidity 75%, time 0 month, dihydrochloride
[14] = Condition (2): non-closed state, 40° C., humidity 75%, time 6 months

stability (in words) [1]	Residual rate of Compound (I) [2] [%]	Residual rate of Compound (I) [3] [%]	Residual rate of Compound (I) [4] [%]	stability (in words) [5]	Residual rate of Compound (I) [6] [%]	Residual rate of Compound (I) [7] [%]	Residual rate of Compound (I) [8] [%]	Residual rate of Compound (I) [9] [%]	Residual rate of Compound (I) [10] [%]	Residual rate of Compound (I) [11] [%]	stability (in words) [12]	Residual rate of Compound (I) [13] [%]	Residual rate of Compound (I) (Condition (2): non-closed state, 40° C., humidity 75%, time 1 month, Dihydrochloride) [%]	Residual rate of Compound (I) [14] [%]	Molecule
equal in stability	98.8	96.9	95.8												CC1=C(C(=O)OC(C)C)C(c2cccc([N+](=O)[O-])c2)C(C(=O)OC2CN(C(c3ccccc3)c3ccccc3)C2)=C(N)N1.O=C(O)CC(O)(CC(=O)O)C(=O)O (single isomer, unassigned) [Example 2, 2-Amino-1,4-dihydro-6-methyl-4-(3-nitrophenyl)-3,5-pyridinedicarboxylic acid 3-(1-diphenylmethylazetidin-3-yl)ester 5-isopropyl ester monocitrate]
extremely low stability			58.9			62.9	59.0		98.1	60.0	low stability	98.1			CC1=C(C(=O)OC(C)C)C(c2cccc([N+](=O)[O-])c2)C(C(=O)OC2CN(C(c3ccccc3)c3ccccc3)C2)=C(N)N1.Cl.Cl (centres unmarked) [Comparative Example 1, 2-Amino-1,4-dihydro-6-methyl-4-(3-nitrophenyl)-3,5-pyridinedicarboxylic acid 3-(1-diphenylmethylazetidin-3-yl)ester 5-isopropyl ester dihydrochloride, reference compound]
extremely low stability									97.3	10.3	extremely low stability	97.3	11.3		CC1=C(C(=O)OC(C)C)C(c2cccc([N+](=O)[O-])c2)C(C(=O)OC2CN(C(c3ccccc3)c3ccccc3)C2)=C(N)N1.Cl.Cl (centres unmarked) [Comparative Example 2, 2-Amino-1,4-dihydro-6-methyl-4-(3-nitrophenyl)-3,5-pyridinedicarboxylic Acid 3-(1-diphenylmethylazetidin-3-yl)ester 5-isopropyl Ester Dihydrochloride, reference compound]
did not have high stability	99.5	96.9	94.9	low stability	99.5	93.9	88.9	92.8						84.8	CC1=C(C(=O)OC(C)C)C(c2cccc([N+](=O)[O-])c2)C(C(=O)OC2CN(C(c3ccccc3)c3ccccc3)C2)=C(N)N1.O=S(=O)(O)O (centres unmarked) [Comparative Example 3, 2-Amino-1,4-dihydro-6-methyl-4-(3-nitrophenyl)-3,5-pyridinedicarboxylic Acid 3-(1-diphenylmethylazetidin-3-yl)ester 5-isopropyl Ester Monosulfate, reference compound]
	99.6	98.7	98.5												CC1=C(C(=O)OC(C)C)C(c2cccc([N+](=O)[O-])c2)C(C(=O)OC2CN(C(c3ccccc3)c3ccccc3)C2)=C(N)N1.CS(=O)(=O)O.CS(=O)(=O)O (centres unmarked) [Example 3, 2-Amino-1,4-dihydro-6-methyl-4-(3-nitrophenyl)-3,5-pyridinedicarboxylic acid 3-(1-diphenylmethylazetidin-3-yl)ester 5-isopropyl ester dimethanesulfonate]
	99.5	98.6	98.1	excellent stability	99.5	99.1	98.8								CC1=C(C(=O)OC(C)C)C(c2cccc([N+](=O)[O-])c2)C(C(=O)OC2CN(C(c3ccccc3)c3ccccc3)C2)=C(N)N1.CS(=O)(=O)O.CS(=O)(=O)O.CS(=O)(=O)O (centres unmarked) [Example 4, 2-Amino-1,4-dihydro-6-methyl-4-(3-nitrophenyl)-3,5-pyridinedicarboxylic acid 3-(1-diphenylmethylazetidin-3-yl)ester 5-isopropyl ester trimethanesulfonate]
equal in stability	99.7	98.6	96.5					93.3							CC1=C(C(=O)OC(C)C)C(c2cccc([N+](=O)[O-])c2)C(C(=O)OC2CN(C(c3ccccc3)c3ccccc3)C2)=C(N)N1.O=S(=O)(O)c1ccccc1.O=S(=O)(O)c1ccccc1 (centres unmarked) [Example 5, 2-Amino-1,4-dihydro-6-methyl-4-(3-nitrophenyl)-3,5-pyridinedicarboxylic acid 3-(1-diphenylmethylazetidin-3-yl)ester 5-isopropyl ester dibenzenesulfonate]
	99.6	98.8	98.3	excellent stability	99.6	97.5	96.4	97.3						94.5	CC1=C(C(=O)OC(C)C)C(c2cccc([N+](=O)[O-])c2)C(C(=O)OC2CN(C(c3ccccc3)c3ccccc3)C2)=C(N)N1.Cc1ccc(S(=O)(=O)O)cc1.Cc1ccc(S(=O)(=O)O)cc1 (centres unmarked) [Example 6, 2-Amino-1,4-dihydro-6-methyl-4-(3-nitrophenyl)-3,5-pyridinedicarboxylic acid 3-(1-diphenylmethylazetidin-3-yl)ester 5-isopropyl ester di-p-toluenesulfonate]

Molecule	stability (in words) [1]	Residual rate of Compound (I) [2] [%]	Residual rate of Compound (I) [3] [%]	Residual rate of Compound (I) [4] [%]	stability (in words) [5]	Residual rate of Compound (I) [6] [%]	Residual rate of Compound (I) [7] [%]	Residual rate of Compound (I) [8] [%]	Residual rate of Compound (I) [9] [%]	Residual rate of Compound (I) [10] [%]	Residual rate of Compound (I) [11] [%]	stability (in words) [12]	Residual rate of Compound (I) [13] [%]	Residual rate of Compound (I) (Condition (2): non-closed state, 40° C., humidity 75%, time 1 month, Dihydrochloride) [%]	Residual rate of Compound (I) [14] [%]
2-Amino-1,4-dihydro-6-methyl-4-(3-nitrophenyl)-3,5-pyridinedicarboxylic Acid 3-(1-diphenylmethylazetidin-3-yl)ester 5-isopropyl Ester Hemifumarate [Comparative Example 4, reference compound]	did not have high stability	99.7	96.7	93.0	low stability	99.7	94.8	91.3							
2-Amino-1,4-dihydro-6-methyl-4-(3-nitrophenyl)-3,5-pyridinedicarboxylic acid 3-(1-diphenylmethylazetidin-3-yl)ester 5-isopropyl Ester Dinaphthalenesulfonate [Example 7]	equal in stability	99.4	97.3	95.4					93.0						
